# Experimental data as given in ChEMBL document CHEMBL1777706, “Discovery of selective and orally available spiro-3-piperidyl ATP-competitive MK2 inhibitors” (Bioorg Med Chem Lett, 2011).
# The source made the active and inactive calls. The calls are words filed in the database; no cut-off is given here.
# Biological target: Mitogen-activated protein kinase 1 (Homo sapiens) (UniProt P28482)
# Experiment: Inhibition of ERK2 at 1 uM
# Sequence of Mitogen-activated protein kinase 1 (Homo sapiens) (P28482 whole entry, looked up): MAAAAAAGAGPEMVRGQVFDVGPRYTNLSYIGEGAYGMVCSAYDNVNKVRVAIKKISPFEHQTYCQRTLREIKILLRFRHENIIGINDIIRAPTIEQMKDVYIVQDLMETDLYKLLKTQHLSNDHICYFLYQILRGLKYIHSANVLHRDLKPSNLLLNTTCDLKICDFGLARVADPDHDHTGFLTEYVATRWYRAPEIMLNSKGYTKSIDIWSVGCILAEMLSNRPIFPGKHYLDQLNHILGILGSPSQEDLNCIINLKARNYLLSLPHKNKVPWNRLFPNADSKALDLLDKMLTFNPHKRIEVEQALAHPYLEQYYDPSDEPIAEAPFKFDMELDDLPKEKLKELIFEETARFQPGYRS
row,inhibition [%],Structure (SMILES)
1,> 80,O=C1NCC2(CCNCC2)c2[nH]c(-c3ccnc(-c4cnc5ccccc5c4)n3)cc21
2,> 80,O=C1NCC2(CCNCC2)c2[nH]c(-c3ccnc(-c4cccc(C(F)(F)F)c4)n3)cc21
3,> 80,COCCCOc1ccc(-c2nccc(-c3cc4c([nH]3)[C@@]3(CCCNC3)CNC4=O)n2)cn1
4,> 80,Nc1ccc(-c2nccc(-c3cc4c([nH]3)C3(CCNCC3)CNC4=O)n2)cn1
5,> 80,O=C1NCC2(CCNCC2)c2[nH]c(-c3ccnc(-c4cc(Cl)cc(Cl)c4)n3)cc21
6,> 80,O=C1NCC2(CCNCC2)c2[nH]c(-c3ccnc(-c4ccc5c(c4)OCCCO5)n3)cc21
7,> 80,O=C1NCC2(CCNCC2)c2[nH]c(-c3ccnc(-c4ccccc4F)n3)cc21

# Biological target: Serine/threonine-protein kinase Chk2 (Homo sapiens) (UniProt O96017)
# Experiment: Inhibition of CHK2 at 1 uM
# Sequence of Serine/threonine-protein kinase Chk2 (Homo sapiens) (O96017 whole entry): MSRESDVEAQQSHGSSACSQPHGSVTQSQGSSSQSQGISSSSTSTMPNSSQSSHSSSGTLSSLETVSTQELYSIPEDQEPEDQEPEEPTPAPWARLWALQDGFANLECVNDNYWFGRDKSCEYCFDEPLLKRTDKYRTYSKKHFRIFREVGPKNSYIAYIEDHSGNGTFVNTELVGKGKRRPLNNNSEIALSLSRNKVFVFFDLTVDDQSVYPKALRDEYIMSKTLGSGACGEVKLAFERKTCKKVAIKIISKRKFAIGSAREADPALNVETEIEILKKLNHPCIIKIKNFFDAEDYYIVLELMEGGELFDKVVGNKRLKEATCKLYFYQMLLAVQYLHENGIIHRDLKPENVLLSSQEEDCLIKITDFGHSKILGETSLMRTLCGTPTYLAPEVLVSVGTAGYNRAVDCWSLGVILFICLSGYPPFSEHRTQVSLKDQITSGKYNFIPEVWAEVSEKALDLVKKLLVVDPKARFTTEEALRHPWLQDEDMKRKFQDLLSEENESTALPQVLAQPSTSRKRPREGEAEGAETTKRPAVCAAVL
row,inhibition [%],Structure (SMILES)
1,> 80,O=C1NCC2(CCNCC2)c2[nH]c(-c3ccnc(-c4cnc5ccccc5c4)n3)cc21
2,> 80,O=C1NCC2(CCNCC2)c2[nH]c(-c3ccnc(-c4cccc(C(F)(F)F)c4)n3)cc21
3,> 80,COCCCOc1ccc(-c2nccc(-c3cc4c([nH]3)[C@@]3(CCCNC3)CNC4=O)n2)cn1
4,> 80,Nc1ccc(-c2nccc(-c3cc4c([nH]3)C3(CCNCC3)CNC4=O)n2)cn1
5,> 80,O=C1NCC2(CCNCC2)c2[nH]c(-c3ccnc(-c4cc(Cl)cc(Cl)c4)n3)cc21
6,> 80,O=C1NCC2(CCNCC2)c2[nH]c(-c3ccnc(-c4ccc5c(c4)OCCCO5)n3)cc21
7,> 80,O=C1NCC2(CCNCC2)c2[nH]c(-c3ccnc(-c4ccccc4F)n3)cc21

# Biological target: T1, MAP kinase-activated protein kinase 2 (Homo sapiens, UniProt P49137)
# Experiment: Inhibition of MK2 pretreated for 30 mins before fluorescein labeled substrate peptide addition measured after 2 hrs by IMAP assay
# T1 sequence (P49137 whole entry): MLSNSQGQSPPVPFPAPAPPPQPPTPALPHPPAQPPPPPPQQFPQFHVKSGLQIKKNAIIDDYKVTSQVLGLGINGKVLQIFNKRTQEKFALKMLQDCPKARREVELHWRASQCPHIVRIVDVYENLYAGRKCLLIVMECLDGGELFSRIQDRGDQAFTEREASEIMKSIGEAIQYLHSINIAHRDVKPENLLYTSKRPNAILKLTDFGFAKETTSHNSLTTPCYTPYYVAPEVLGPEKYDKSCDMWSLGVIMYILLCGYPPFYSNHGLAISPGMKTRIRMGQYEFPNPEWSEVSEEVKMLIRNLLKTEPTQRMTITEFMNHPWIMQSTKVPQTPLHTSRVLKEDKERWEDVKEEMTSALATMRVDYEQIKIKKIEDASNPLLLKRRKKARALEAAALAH
row,EC50 [µM],Structure (SMILES)
1,0.015,O=C1NCC2(CCNCC2)c2[nH]c(-c3ccnc(-c4cccc(C(F)(F)F)c4)n3)cc21
2,0.129,COCCCOc1ccc(-c2nccc(-c3cc4c([nH]3)[C@@]3(CCCNC3)CNC4=O)n2)cn1
3,0.015,Nc1ccc(-c2nccc(-c3cc4c([nH]3)C3(CCNCC3)CNC4=O)n2)cn1
4,0.0045,O=C1NCC2(CCNCC2)c2[nH]c(-c3ccnc(-c4cc(Cl)cc(Cl)c4)n3)cc21
5,0.01,O=C1NCC2(CCNCC2)c2[nH]c(-c3ccnc(-c4ccc5c(c4)OCCCO5)n3)cc21
6,0.029,O=C1NCC2(CCNCC2)c2[nH]c(-c3ccnc(-c4ccccc4F)n3)cc21

# Biological target: T1, MAP kinase-activated protein kinase 2
# Experiment: Inhibition of MK2 in LPS-stimulated human THP1 cells assessed as inhibition of Hsp27 phosphorylation pretreated 60 mins before LPS challenge measured after 10 mins
# Format: cell-based, THP-1
row,EC50 [µM],Structure (SMILES)
1,> 10,COCCCOc1ccc(-c2nccc(-c3cc4c([nH]3)[C@@]3(CCCNC3)CNC4=O)n2)cn1

# Biological target: T2, Serine/threonine-protein kinase 17A (Homo sapiens) (UniProt Q9UEE5)
# T2 sequence (whole entry): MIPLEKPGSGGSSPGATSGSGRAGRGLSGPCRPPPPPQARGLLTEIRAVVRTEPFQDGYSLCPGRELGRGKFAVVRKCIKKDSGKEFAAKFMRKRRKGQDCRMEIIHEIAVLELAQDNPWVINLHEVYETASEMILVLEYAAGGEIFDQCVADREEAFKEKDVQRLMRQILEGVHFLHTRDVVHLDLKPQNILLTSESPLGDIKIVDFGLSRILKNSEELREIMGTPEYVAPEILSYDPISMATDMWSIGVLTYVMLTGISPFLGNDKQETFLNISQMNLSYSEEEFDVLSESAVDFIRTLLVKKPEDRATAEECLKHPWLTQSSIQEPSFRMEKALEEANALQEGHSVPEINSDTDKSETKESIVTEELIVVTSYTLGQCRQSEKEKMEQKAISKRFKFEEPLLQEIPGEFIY
# Experiment: Inhibition of DRAK1 at 1 uM
row,inhibition [%],Structure (SMILES)
1,> 80,O=C1NCC2(CCNCC2)c2[nH]c(-c3ccnc(-c4cnc5ccccc5c4)n3)cc21
2,> 80,O=C1NCC2(CCNCC2)c2[nH]c(-c3ccnc(-c4cccc(C(F)(F)F)c4)n3)cc21
3,> 80,COCCCOc1ccc(-c2nccc(-c3cc4c([nH]3)[C@@]3(CCCNC3)CNC4=O)n2)cn1
4,> 80,Nc1ccc(-c2nccc(-c3cc4c([nH]3)C3(CCNCC3)CNC4=O)n2)cn1
5,> 80,O=C1NCC2(CCNCC2)c2[nH]c(-c3ccnc(-c4cc(Cl)cc(Cl)c4)n3)cc21
6,> 80,O=C1NCC2(CCNCC2)c2[nH]c(-c3ccnc(-c4ccc5c(c4)OCCCO5)n3)cc21
7,> 80,O=C1NCC2(CCNCC2)c2[nH]c(-c3ccnc(-c4ccccc4F)n3)cc21

# Test system: THP-1
# Experiment: Antiinflammatory activity in human THP1 cells assessed as inhibition of LPS-induced TNFalpha production pretreated 30 mins before LPS challenge measured after 4 hrs
# Format: functional, cell-based
row,EC50 [µM],Structure (SMILES)
1,4.8,O=C1NCC2(CCNCC2)c2[nH]c(-c3ccnc(-c4cnc5ccccc5c4)n3)cc21
2,4.2,O=C1NCC2(CCNCC2)c2[nH]c(-c3ccnc(-c4cccc(C(F)(F)F)c4)n3)cc21
3,> 10,COCCCOc1ccc(-c2nccc(-c3cc4c([nH]3)[C@@]3(CCCNC3)CNC4=O)n2)cn1
4,> 10,Nc1ccc(-c2nccc(-c3cc4c([nH]3)C3(CCNCC3)CNC4=O)n2)cn1
5,6.3,O=C1NCC2(CCNCC2)c2[nH]c(-c3ccnc(-c4cc(Cl)cc(Cl)c4)n3)cc21
6,4.9,O=C1NCC2(CCNCC2)c2[nH]c(-c3ccnc(-c4ccc5c(c4)OCCCO5)n3)cc21
7,4.2,O=C1NCC2(CCNCC2)c2[nH]c(-c3ccnc(-c4ccccc4F)n3)cc21

# Biological target: Serine/threonine-protein kinase pim-1 (Homo sapiens) (UniProt P11309)
# Experiment: Inhibition of PIM1 at 1 uM
# Sequence of Serine/threonine-protein kinase pim-1 (Homo sapiens) (P11309 whole entry, looked up): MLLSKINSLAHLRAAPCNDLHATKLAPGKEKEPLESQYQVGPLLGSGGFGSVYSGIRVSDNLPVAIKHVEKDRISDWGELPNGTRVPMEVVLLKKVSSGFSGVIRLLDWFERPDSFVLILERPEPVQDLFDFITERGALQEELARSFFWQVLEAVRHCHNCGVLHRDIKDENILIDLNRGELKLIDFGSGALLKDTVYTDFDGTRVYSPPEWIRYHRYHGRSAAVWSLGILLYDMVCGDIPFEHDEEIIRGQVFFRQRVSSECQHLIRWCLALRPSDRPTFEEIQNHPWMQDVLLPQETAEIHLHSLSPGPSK
row,inhibition [%],Structure (SMILES)
1,> 80,O=C1NCC2(CCNCC2)c2[nH]c(-c3ccnc(-c4cnc5ccccc5c4)n3)cc21
2,> 80,O=C1NCC2(CCNCC2)c2[nH]c(-c3ccnc(-c4cccc(C(F)(F)F)c4)n3)cc21
3,> 80,COCCCOc1ccc(-c2nccc(-c3cc4c([nH]3)[C@@]3(CCCNC3)CNC4=O)n2)cn1
4,> 80,Nc1ccc(-c2nccc(-c3cc4c([nH]3)C3(CCNCC3)CNC4=O)n2)cn1
5,> 80,O=C1NCC2(CCNCC2)c2[nH]c(-c3ccnc(-c4cc(Cl)cc(Cl)c4)n3)cc21
6,> 80,O=C1NCC2(CCNCC2)c2[nH]c(-c3ccnc(-c4ccc5c(c4)OCCCO5)n3)cc21
7,> 80,O=C1NCC2(CCNCC2)c2[nH]c(-c3ccnc(-c4ccccc4F)n3)cc21

# Biological target: Mitogen-activated protein kinase 3 (Homo sapiens) (UniProt P27361)
# Experiment: Inhibition of ERK1 at 1 uM
# Sequence of Mitogen-activated protein kinase 3 (Homo sapiens) (P27361 whole entry): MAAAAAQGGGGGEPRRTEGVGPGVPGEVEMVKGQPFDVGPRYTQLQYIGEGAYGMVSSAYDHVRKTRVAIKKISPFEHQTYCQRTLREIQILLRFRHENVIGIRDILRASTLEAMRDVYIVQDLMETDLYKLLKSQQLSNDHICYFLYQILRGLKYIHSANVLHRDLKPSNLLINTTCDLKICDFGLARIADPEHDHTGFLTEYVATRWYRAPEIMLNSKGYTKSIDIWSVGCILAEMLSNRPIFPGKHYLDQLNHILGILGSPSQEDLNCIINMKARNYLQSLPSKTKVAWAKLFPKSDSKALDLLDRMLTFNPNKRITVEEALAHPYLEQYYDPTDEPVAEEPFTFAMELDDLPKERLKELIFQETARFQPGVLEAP
row,inhibition [%],Structure (SMILES)
1,> 80,O=C1NCC2(CCNCC2)c2[nH]c(-c3ccnc(-c4cnc5ccccc5c4)n3)cc21
2,> 80,O=C1NCC2(CCNCC2)c2[nH]c(-c3ccnc(-c4cccc(C(F)(F)F)c4)n3)cc21
3,> 80,COCCCOc1ccc(-c2nccc(-c3cc4c([nH]3)[C@@]3(CCCNC3)CNC4=O)n2)cn1
4,> 80,Nc1ccc(-c2nccc(-c3cc4c([nH]3)C3(CCNCC3)CNC4=O)n2)cn1
5,> 80,O=C1NCC2(CCNCC2)c2[nH]c(-c3ccnc(-c4cc(Cl)cc(Cl)c4)n3)cc21
6,> 80,O=C1NCC2(CCNCC2)c2[nH]c(-c3ccnc(-c4ccc5c(c4)OCCCO5)n3)cc21
7,> 80,O=C1NCC2(CCNCC2)c2[nH]c(-c3ccnc(-c4ccccc4F)n3)cc21

# Test system: PBMC
# Experiment: Antiinflammatory activity in human PBMC cells assessed as inhibition of LPS-induced TNFalpha production pretreated 30 mins before LPS challenge measured after 4 hrs by ELISA
# Format: functional, cell-based
row,Structure (SMILES),EC50 [µM]
1,COCCCOc1ccc(-c2nccc(-c3cc4c([nH]3)[C@@]3(CCCNC3)CNC4=O)n2)cn1,6.9

# Biological target: Serine/threonine-protein kinase pim-3 (Homo sapiens) (UniProt Q86V86)
# Experiment: Inhibition of PIM3 at 1 uM
row,inhibition [%],Structure (SMILES)
1,> 80,O=C1NCC2(CCNCC2)c2[nH]c(-c3ccnc(-c4cnc5ccccc5c4)n3)cc21
2,> 80,O=C1NCC2(CCNCC2)c2[nH]c(-c3ccnc(-c4cccc(C(F)(F)F)c4)n3)cc21
3,> 80,COCCCOc1ccc(-c2nccc(-c3cc4c([nH]3)[C@@]3(CCCNC3)CNC4=O)n2)cn1
4,> 80,Nc1ccc(-c2nccc(-c3cc4c([nH]3)C3(CCNCC3)CNC4=O)n2)cn1
5,> 80,O=C1NCC2(CCNCC2)c2[nH]c(-c3ccnc(-c4cc(Cl)cc(Cl)c4)n3)cc21
6,> 80,O=C1NCC2(CCNCC2)c2[nH]c(-c3ccnc(-c4ccc5c(c4)OCCCO5)n3)cc21
7,> 80,O=C1NCC2(CCNCC2)c2[nH]c(-c3ccnc(-c4ccccc4F)n3)cc21

# Test system: not listed separately
# Experiment: Inhibition of p38
row,inhibition,Structure (SMILES)
1,inactive,O=C1NCC2(CCNCC2)c2[nH]c(-c3ccnc(-c4cnc5ccccc5c4)n3)cc21
2,inactive,O=C1NCC2(CCNCC2)c2[nH]c(-c3ccnc(-c4cccc(C(F)(F)F)c4)n3)cc21
3,inactive,COCCCOc1ccc(-c2nccc(-c3cc4c([nH]3)[C@@]3(CCCNC3)CNC4=O)n2)cn1
4,inactive,Nc1ccc(-c2nccc(-c3cc4c([nH]3)C3(CCNCC3)CNC4=O)n2)cn1
5,inactive,O=C1NCC2(CCNCC2)c2[nH]c(-c3ccnc(-c4cc(Cl)cc(Cl)c4)n3)cc21
6,inactive,O=C1NCC2(CCNCC2)c2[nH]c(-c3ccnc(-c4ccc5c(c4)OCCCO5)n3)cc21
7,inactive,O=C1NCC2(CCNCC2)c2[nH]c(-c3ccnc(-c4ccccc4F)n3)cc21
